Assay results reported in patent US20090215857A1 (Pfizer Products Inc., priority 2005, published 2009).
Where a name gives a salt, the structure may show the parent alone.

Experiments:
[1] = target: T1, human norepinephrine transporter (Homo sapiens, UniProt P23975); experiment: hNET receptor binding ([125I]-RTI-55 radioligand); details: membranes of HEK-293 cells transfected with human norepinephrine transporter cDNA; 50 pM [125I]-RTI-55; IC50 converted by Cheng-Prusoff; read-out: NET Ki
T1 construct: expressed in transfected cells; host or cells: HEK-293
T1 sequence (P23975 whole entry): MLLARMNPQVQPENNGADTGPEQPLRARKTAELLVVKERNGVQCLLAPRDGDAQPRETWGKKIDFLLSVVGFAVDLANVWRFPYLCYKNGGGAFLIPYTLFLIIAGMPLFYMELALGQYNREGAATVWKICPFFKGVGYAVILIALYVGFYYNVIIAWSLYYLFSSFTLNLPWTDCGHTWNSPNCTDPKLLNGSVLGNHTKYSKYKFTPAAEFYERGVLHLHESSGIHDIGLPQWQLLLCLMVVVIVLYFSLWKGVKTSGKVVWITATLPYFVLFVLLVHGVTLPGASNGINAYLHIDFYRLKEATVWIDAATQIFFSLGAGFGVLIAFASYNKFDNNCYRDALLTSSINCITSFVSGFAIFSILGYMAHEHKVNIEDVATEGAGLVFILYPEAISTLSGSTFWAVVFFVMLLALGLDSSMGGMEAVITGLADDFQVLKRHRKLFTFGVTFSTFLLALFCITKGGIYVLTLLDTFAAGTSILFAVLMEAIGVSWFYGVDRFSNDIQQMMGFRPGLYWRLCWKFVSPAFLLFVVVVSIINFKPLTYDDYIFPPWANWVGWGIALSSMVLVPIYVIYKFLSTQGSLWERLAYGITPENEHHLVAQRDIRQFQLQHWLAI
Description: (§1) Cell pastes of HEK-293 cells transfected with a human norepinephrine transporter cDNA were prepared. The cell pastes were resuspended in 400 to 700 ml of Krebs-HEPES assay buffer (25 mM HEPES, 122 mM NaCl, 3 mM KCl, 1.2 mM MgSO4, 1.3 mM CaCl2, and 11 mM glucose, pH 7.4) with a Polytron homogenizer at setting 7 for 30 seconds. Aliquots of membranes (5 mg/ml protein) were stored in liquid nitrogen until used.
The binding assay was set up in Beckman deep-well polypropylene plates with a total volume of 250 μl containing: test compound (10^−5M to 10^−12M), cell membranes, and 50 pM [^125I]-RTI-55 (Perkin Elmer, NEX-272; specific activity 2200 Ci/mmol). The reaction was incubated by gentle agitation for 90 minutes at room temperature and was terminated by filtration through Whatman GF/C filter plates using a Brandel 96-well plate harvester. Scintillation fluid (100 μl) was added to each well, and bound [^125I]-RTI-55 was determined using a Wallac Trilux Beta Plate Counter. Test compounds were run in duplicate, and specific binding was defined as the difference between binding in the presence and absence of 10 μM desipramine.
Excel and GraphPad Prism software were used for data calculation and analysis. IC50 values were converted to K, values using the Cheng-Prusoff equation.

[2] = target: T2, human serotonin transporter (Homo sapiens, UniProt P31645); experiment: hSERT receptor binding ([125I]-RTI-55 radioligand); details: membranes of HEK-293 cells transfected with human serotonin transporter cDNA; 50 pM [125I]-RTI-55; IC50 converted by Cheng-Prusoff; read-out: SERT Ki
T2 construct: expressed in transfected cells; host or cells: HEK-293
T2 sequence (P31645 whole entry): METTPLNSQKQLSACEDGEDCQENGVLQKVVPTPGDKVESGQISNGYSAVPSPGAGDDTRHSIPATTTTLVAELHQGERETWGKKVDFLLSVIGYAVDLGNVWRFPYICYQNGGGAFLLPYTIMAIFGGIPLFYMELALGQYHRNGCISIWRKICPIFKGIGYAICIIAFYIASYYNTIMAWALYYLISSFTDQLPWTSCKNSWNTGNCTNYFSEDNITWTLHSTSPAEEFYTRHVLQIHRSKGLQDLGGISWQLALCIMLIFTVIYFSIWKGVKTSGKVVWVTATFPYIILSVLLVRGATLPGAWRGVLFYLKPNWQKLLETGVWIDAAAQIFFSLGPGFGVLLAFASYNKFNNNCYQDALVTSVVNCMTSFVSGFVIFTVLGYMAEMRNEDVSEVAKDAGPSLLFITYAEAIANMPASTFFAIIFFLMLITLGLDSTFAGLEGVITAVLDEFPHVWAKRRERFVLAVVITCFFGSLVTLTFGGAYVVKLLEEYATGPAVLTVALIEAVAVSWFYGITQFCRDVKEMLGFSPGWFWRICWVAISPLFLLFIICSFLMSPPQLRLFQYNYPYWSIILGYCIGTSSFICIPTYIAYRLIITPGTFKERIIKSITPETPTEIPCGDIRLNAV
Description: as §1, with “serotonin” for “norepinephrine”, “Setting” for “setting”, “(˜2.5” for “(5”
Assays were set up in FlashPlates pre-coated with 0.1% PEI in a total volume of 250 μl containing: test compound (10^−5M to 10^−12M), cell membranes, and 50 pM [^125I]-RTI-55 (Perkin Elmer, NEX-272; specific activity 2200 Ci/mmol). The reaction was incubated and gently agitated for 90 minutes at room temperature, and terminated by removal of assay volume. Plates were covered, and bound [^125I]-RTI-55 was determined using a Wallac Trilux Beta Plate Counter. Test compounds were run in duplicate, and specific binding was defined as the difference between binding in the presence and absence of 10 μM citalopram.
Excel and GraphPad Prism software were used for data calculation and analysis. IC50 values were converted to Ki values using the Cheng-Prusoff equation.

## c1ccc(-c2ccccc2-c2ccccc2CO[C@H]2CCNC2)cc1 [Example D-34, (S)-3-([1,1′,2′,1″]Terphenyl-2-ylmethoxy)-pyrrolidine]
[1]
  Ki: 554 nM
[2]
  Ki: 2750 nM

## COc1ccc(-c2ccc(F)cc2CO[C@H]2CCNC2)cc1F [Example D-100, (S)-3-(4,3′-Difluoro-4′-methoxy-biphenyl-2-ylmethoxy)-pyrrolidine]
[1]
  Ki: 404 nM
[2]
  Ki: 486 nM

## Fc1ccc(-c2ccc(C(F)(F)F)cc2)c(CO[C@H]2CCNC2)c1 [Example D-79, (S)-3-(4-Fluoro-4′-trifluoromethyl-biphenyl-2-ylmethoxy)-pyrrolidine]
[1]
  Ki: 6780 nM
[2]
  Ki: 206 nM

## COc1ccc(Cl)cc1-c1ccccc1CO[C@H]1CCNC1 [Example D-44, (S)-3-(5′-Chloro-2′-methoxy-biphenyl-2-ylmethoxy)-pyrrolidine]
[1]
  Ki: 3340 nM
[2]
  Ki: 12.4 nM

## N#Cc1ccc(-c2ccccc2CO[C@H]2CCNC2)cc1 [Example D-51]
[1]
  Ki: 5410 nM
[2]
  Ki: 5460 nM

## Fc1cccc(-c2ncccc2CO[C@H]2CCNC2)c1F [Example B-2, (S)-2-(2,3-Difluoro-phenyl)-3-(pyrrolidin-3-yloxymethyl)-pyridine fumarate]
[1]
  Ki: 206 nM
[2]
  Ki: 3350 nM

## Clc1ccc(-c2ccccc2CO[C@H]2CCNC2)cc1 [Example D-12, (S)-3-(4′-Chloro-biphenyl-2-ylmethoxy)-pyrrolidine]
[1]
  Ki: 41.6 nM
[2]
  Ki: 101 nM

## Cc1cc(C)cc(-c2ccc(F)cc2CO[C@H]2CCNC2)c1 [Example D-67, (S)-3-(4-Fluoro-3′,5′-dimethyl-biphenyl-2-ylmethoxy)-pyrrolidine]
[1]
  Ki: 377 nM
[2]
  Ki: 116 nM

## Fc1cccc(-c2ccccc2CO[C@@H]2CCNC2)c1F [Example A-15, (R)-3-(2′,3′-Difluoro-biphenyl-2-ylmethoxy)-pyrrolidine fumarate]
[1]
  Ki: 80.9 nM
[2]
  Ki: 185 nM

## COc1c(C)cc(-c2ccc(F)cc2CO[C@H]2CCNC2)cc1C [Example D-92, (S)-3-(4-Fluoro-4′-methoxy-3′,5′-dimethyl-biphenyl-2-ylmethoxy)-pyrrolidine]
[1]
  Ki: 738 nM
[2]
  Ki: 144 nM

## Cc1cc(-c2ccc(F)cc2CO[C@H]2CCNC2)ccc1F [Example D-94, (S)-3-(4,4′-Difluoro-3′-methyl-biphenyl-2-ylmethoxy)-pyrrolidine]
[1]
  Ki: 102 nM
[2]
  Ki: 88.4 nM

## Cc1cccc(-c2ccccc2CO[C@H]2CCNC2)c1 [Example D-16, (S)-3-(3′-Methyl-biphenyl-2-ylmethoxy)-pyrrolidine]
[1]
  Ki: 63.5 nM
[2]
  Ki: 24.7 nM

## c1ccc(-c2ccc3c(c2)OCCO3)c(CO[C@H]2CCNC2)c1 [Example D-46]
[1]
  Ki: 3880 nM
[2]
  Ki: 3760 nM

## COc1ccc(-c2ccccc2CO[C@H]2CCNC2)cc1F [Example D-21, (S)-3-(3′-Fluoro-4′-methoxy-biphenyl-2-ylmethoxy)-pyrrolidine]
[1]
  Ki: 113 nM
[2]
  Ki: 431 nM

## Fc1ccc(-c2ccccc2CO[C@@H]2CCNC2)c(F)c1 [Example A-20, (R)-3-(2′,4′-Difluoro-biphenyl-2-ylmethoxy)-pyrrolidine fumarate]
[1]
  Ki: 127 nM
[2]
  Ki: 313 nM

## COc1ccc(F)cc1-c1ccc(F)cc1CO[C@H]1CCNC1 [Example D-64, (S)-3-(4,5′-Difluoro-2′-methoxy-biphenyl-2-ylmethoxy)-pyrroldine]
[1]
  Ki: 1290 nM
[2]
  Ki: 656 nM

## Clc1ccc(-c2ccccc2CO[C@H]2CCNC2)cc1Cl [Example D-4, (S)-3-(3′,4′-Dichloro-biphenyl-2-ylmethoxy)-pyrrolidine]
[1]
  Ki: 15.1 nM
[2]
  Ki: 18.3 nM

## COc1cccc(-c2ccccc2CO[C@H]2CCNC2)c1C(=O)N(C(C)C)C(C)C [Example D-60, (S)-3-Methoxy-2′-(pyrrolidin-3-yloxymethyl)-biphenyl-2-carboxylic acid diisopropylamide]
[1]
  Ki: ≥ 10000 nM
[2]
  Ki: 882 nM

## CCc1ccc(-c2ccc(F)cc2CO[C@H]2CCNC2)cc1 [Example D-76, (S)-3-(4′-Ethyl-4-fluoro-biphenyl-2-ylmethoxy)-pyrrolidine]
[1]
  Ki: 1280 nM
[2]
  Ki: 734 nM

## COc1cc(-c2ccc(F)cc2CO[C@H]2CCNC2)cc(OC)c1OC [Example D-105]
[1]
  Ki: 1520 nM
[2]
  Ki: 577 nM

## Cc1cc(F)ccc1-c1ccccc1CO[C@H]1CCNC1 [Example A-12, (S)-3-(4′-Fluoro-2′-methyl-biphenyl-2-ylmethoxy)-pyrrolidine hydrochloride]
[1]
  Ki: 50 nM

## Fc1ccc(CO[C@H]2CCNC2)c(-c2ccccc2F)c1 [Example A-25, (S)-(5,2′-Difluoro-biphenyl-2-ylmethoxy)-pyrrolidine hydrochloride]
[1]
  Ki: 26.2 nM
[2]
  Ki: 152 nM

## c1ccc(-c2ccc3c(c2)CCO3)c(CO[C@H]2CCNC2)c1 [Example D-32, (S)-3-[2-(2,3-Dihydro-benzofuran-5-yl)-benzyloxy]-pyrrolidine]
[1]
  Ki: 516 nM
[2]
  Ki: 549 nM

## NC(=O)c1cccc(-c2ccc(F)cc2CO[C@H]2CCNC2)c1 [Example D-117, (S)-4′-Fluoro-2′-(pyrrolidin-3-yloxymethyl)-biphenyl-3-carboxylic acid amide]
[1]
  Ki: ≥ 10000 nM
[2]
  Ki: 2160 nM

## COc1ccc(-c2ccccc2CO[C@H]2CCNC2)cc1 [Example D-28, (S)-3-(4′-Methoxy-biphenyl-2-ylmethoxy)-pyrrolidine]
[1]
  Ki: 301 nM
[2]
  Ki: 1100 nM

## CC(=O)c1ccc(-c2ccccc2CO[C@H]2CCNC2)cc1 [Example D-47, (S)-1-[2′-(Pyrrolidin-3-yloxymethyl)-biphenyl-4-yl]-ethanone]
[1]
  Ki: 4120 nM
[2]
  Ki: 906 nM

## Fc1ccccc1-c1ccccc1CO[C@@H]1CCNC1 [Example A-16, (R)-3-(2′-Fluoro-biphenyl-2-ylmethoxy)-pyrrolidine fumarate]
[1]
  Ki: 89.9 nM
[2]
  Ki: 436 nM

## CCOc1ccc(-c2ccc(F)cc2CO[C@H]2CCNC2)cc1 [Example D-85, (S)-3-(4′-Ethoxy-4-fluoro-biphenyl-2-ylmethoxy)-pyrrolidine]
[1]
  Ki: 706 nM
[2]
  Ki: 324 nM

## CC(C)OC(=O)c1ccc(-c2ccc(F)cc2CO[C@H]2CCNC2)cc1 [Example D-88, (S)-4′-Fluoro-2′-(pyrrolidine-3-yloxymethyl)-biphenyl-4-carboxylic acid isopropyl ester]
[1]
  Ki: 1030 nM
[2]
  Ki: 1040 nM

## Cc1cc(C)cc(-c2ccccc2CO[C@H]2CCNC2)c1 [Example D-27, (S)-3-(3′,5′-Dimethyl-biphenyl-2-ylmethoxy)-pyrrolidine]
[1]
  Ki: 295 nM
[2]
  Ki: 91.9 nM

## Fc1ccc(-c2ccccc2CO[C@H]2CCNC2)cc1Cl [Example A-11, (S)-3-(3′-Chloro-4′-fluoro-biphenyl-2-ylmethoxy)-pyrrolidine hydrochloride]
[1]
  Ki: 39.2 nM
[2]
  Ki: 10.3 nM

## COc1c(C)cc(-c2ccccc2CO[C@H]2CCNC2)cc1C [Example D-25, (S)-(4′-Methoxy-3′,5′-dimethyl-biphenyl-2-ylmethoxy)-pyrroldine]
[1]
  Ki: 269 nM
[2]
  Ki: 124 nM

## Fc1ccc(-c2ccc(F)c(Cl)c2)c(CO[C@H]2CCNC2)c1 [Example D-73, (S)-3-(3′-Chloro-4,4′-difluoro-biphenyl-2-ylmethoxy)-pyrrolidine]
[1]
  Ki: 146 nM
[2]
  Ki: 49.7 nM

## Fc1ccc(-c2ccccc2OCc2ccccc2)c(CO[C@H]2CCNC2)c1 [Example D-97, (S)-3-(2′-Benzyloxy-4-fluoro-biphenyl-2-ylmethoxy)-pyrrolidine]
[1]
  Ki: 148 nM
[2]
  Ki: 286 nM

## Fc1cccc(-c2cccnc2CO[C@H]2CCNC2)c1F [Example C-2, (S)-3-(2,3-Difluoro-phenyl)-2-(pyrrolidin-3-yloxymethyl)-pyridine fumarate]
[1]
  Ki: 845 nM
[2]
  Ki: 74.6 nM

## Fc1ccc(Cl)cc1-c1ccccc1CO[C@H]1CCNC1 [Example D-9, (S)-3-(5′-Chloro-2′-fluoro-biphenyl-2-ylmethoxy)-pyrrolidine]
[2]
  Ki: 71.6 nM

## Cc1ccc(C)c(-c2ccccc2CO[C@H]2CCNC2)c1 [Example D-23, (S)-3-(2′,5′-Dimethyl-biphenyl-2-ylmethoxy)-pyrrolidine]
[2]
  Ki: 154 nM

## CCc1ccc(-c2ccccc2CO[C@H]2CCNC2)cc1 [Example D-39, (S)-(4′-Ethyl-biphenyl-2-ylmethoxy)-pyrrolidine]
[2]
  Ki: 528 nM
